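Values below derive from 48-hour exposures of cells grown in 96-well plates, with endpoints linearly interpolated between the two concentrations bracketing the appropriate inhibition level. Here, GI50 denotes the concentration required for 50% inhibition of growth. TGI marks complete inhibition of growth.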
How the values were obtained:
Experiment in all cases: inhibition of tumour cell growth, NCI panel, 48 h
HOP-92 NSCLC = tested on: HOP-92 NSCLC
DU-145 prostate = tested on: DU-145 prostate
SF-295 CNS = tested on: SF-295 CNS
HCC-2998 colon = tested on: HCC-2998 colon
SK-MEL-28 melanoma = tested on: SK-MEL-28 melanoma
A549 NSCLC = tested on: A549 NSCLC
RXF 393 renal = tested on: RXF 393 renal
MOLT-4 leukemia = tested on: MOLT-4 leukemia
T-47D breast = tested on: T-47D breast
786-0 renal = tested on: 786-0 renal
K-562 leukemia = tested on: K-562 leukemia
HOP-62 NSCLC = tested on: HOP-62 NSCLC
NCI-H226 lung = tested on: NCI-H226 lung
RPMI-8226 leukemia = tested on: RPMI-8226 leukemia
OVCAR-4 ovarian = tested on: OVCAR-4 ovarian
SNB-19 CNS = tested on: SNB-19 CNS
HT29 colon = tested on: HT29 colon
BT-549 breast = tested on: BT-549 breast
HS 578T breast = tested on: HS 578T breast
SNB-75 CNS = tested on: SNB-75 CNS
SK-MEL-5 melanoma = tested on: SK-MEL-5 melanoma
EKVX NSCLC = tested on: EKVX NSCLC
HL-60(TB) leukemia = tested on: HL-60(TB) leukemia
MALME-3M melanoma = tested on: MALME-3M melanoma
CAKI-1 renal = tested on: CAKI-1 renal
MCF7 breast = tested on: MCF7 breast
MDA-MB-435 = tested on: MDA-MB-435
UACC-257 melanoma = tested on: UACC-257 melanoma
TK-10 renal = tested on: TK-10 renal
M14 melanoma = tested on: M14 melanoma
SF-539 CNS = tested on: SF-539 CNS
SK-OV-3 ovarian = tested on: SK-OV-3 ovarian
OVCAR-5 ovarian = tested on: OVCAR-5 ovarian
HCT-15 colon = tested on: HCT-15 colon
A498 renal = tested on: A498 renal
LOX IMVI melanoma = tested on: LOX IMVI melanoma
NCI/ADR-RES ovarian = tested on: NCI/ADR-RES ovarian
NCI-H23 lung = tested on: NCI-H23 lung
SK-MEL-2 melanoma = tested on: SK-MEL-2 melanoma
SN12C renal = tested on: SN12C renal
PC-3 prostate = tested on: PC-3 prostate
CCRF-CEM leukemia = tested on: CCRF-CEM leukemia
MDA-MB-231 breast = tested on: MDA-MB-231 breast
SF-268 CNS = tested on: SF-268 CNS
UACC-62 melanoma = tested on: UACC-62 melanoma
OVCAR-8 ovarian = tested on: OVCAR-8 ovarian
NCI-H522 lung = tested on: NCI-H522 lung
ACHN renal = tested on: ACHN renal
U251 CNS = tested on: U251 CNS
SW-620 colon = tested on: SW-620 colon
NCI-H460 lung = tested on: NCI-H460 lung
IGROV1 ovarian = tested on: IGROV1 ovarian
HCT-116 colon = tested on: HCT-116 colon
KM12 colon = tested on: KM12 colon
UO-31 renal = tested on: UO-31 renal
COLO 205 colon = tested on: COLO 205 colon
OVCAR-3 ovarian = tested on: OVCAR-3 ovarian

In the case of C#CCOc1ccc(-c2csc(NC(=O)C=C)n2)cc1NS(=O)(=O)c1cccc2c(N(C)C)cccc12, the GI50 (HOP-92 NSCLC) is reported as 0.819 µM, the TGI (HOP-92 NSCLC) is reported as 3.61 µM and the GI50 (DU-145 prostate) is reported as 1.54 µM. It also gave a TGI (DU-145 prostate) of 5.25 µM, a GI50 (SF-295 CNS) of 3.81 µM and a TGI (SF-295 CNS) of 11.5 µM. It also gave a GI50 (HCC-2998 colon) of 3 µM, a TGI (HCC-2998 colon) of 9.58 µM and a GI50 (SK-MEL-28 melanoma) of 1.25 µM. The TGI (SK-MEL-28 melanoma) was 3.61 µM, the GI50 (A549 NSCLC) was 2.97 µM and the TGI (A549 NSCLC) was 13.2 µM. It also gave a GI50 (RXF 393 renal) of 1.12 µM, a TGI (RXF 393 renal) of 2.07 µM and a GI50 (MOLT-4 leukemia) of 1.18 µM. For the same molecule, the TGI (MOLT-4 leukemia) was 3.83 µM, the GI50 (T-47D breast) was 1.49 µM and the TGI (T-47D breast) was 6.95 µM. For the same molecule, the GI50 (786-0 renal) was 0.909 µM, the TGI (786-0 renal) was 1.94 µM and the GI50 (K-562 leukemia) was 1.2 µM. For the same molecule, the TGI (K-562 leukemia) was 3.8 µM, the GI50 (HOP-62 NSCLC) was 1.64 µM and the TGI (HOP-62 NSCLC) was 8.04 µM. The GI50 (NCI-H226 lung) was 1.17 µM, the TGI (NCI-H226 lung) was 3.51 µM and the GI50 (RPMI-8226 leukemia) was 0.947 µM. For the same molecule, the TGI (RPMI-8226 leukemia) was 2.57 µM, the GI50 (OVCAR-4 ovarian) was 3 µM and the TGI (OVCAR-4 ovarian) was 22.6 µM. For the same molecule, the GI50 (SNB-19 CNS) was 2.25 µM, the TGI (SNB-19 CNS) was 12.1 µM and the GI50 (HT29 colon) was 0.838 µM. The TGI (HT29 colon) was 1.67 µM, the GI50 (BT-549 breast) was 0.81 µM and the TGI (BT-549 breast) was 1.52 µM. It also gave a GI50 (HS 578T breast) of 1.68 µM, a TGI (HS 578T breast) of 22.3 µM and a GI50 (SNB-75 CNS) of 0.862 µM. The TGI (SNB-75 CNS) was 4.6 µM, the GI50 (SK-MEL-5 melanoma) was 1.68 µM and the TGI (SK-MEL-5 melanoma) was 6.28 µM. It also gave a GI50 (EKVX NSCLC) of 7.92 µM, a TGI (EKVX NSCLC) of 22.6 µM and a GI50 (HL-60(TB) leukemia) of 0.683 µM. The TGI (HL-60(TB) leukemia) was 2.12 µM, the GI50 (MALME-3M melanoma) was 1.07 µM and the TGI (MALME-3M melanoma) was 3.46 µM. The GI50 (CAKI-1 renal) was 1.38 µM, the TGI (CAKI-1 renal) was 5.81 µM and the GI50 (MCF7 breast) was 1.09 µM. It also gave a TGI (MCF7 breast) of 5.1 µM, a GI50 (MDA-MB-435) of 1.31 µM and a TGI (MDA-MB-435) of 3.84 µM. The GI50 (UACC-257 melanoma) was 2.46 µM, the TGI (UACC-257 melanoma) was 10 µM and the GI50 (TK-10 renal) was 0.934 µM. For the same molecule, the TGI (TK-10 renal) was 2.04 µM, the GI50 (M14 melanoma) was 1.02 µM and the TGI (M14 melanoma) was 2.58 µM. It also gave a GI50 (SF-539 CNS) of 0.861 µM, a TGI (SF-539 CNS) of 1.78 µM and a GI50 (SK-OV-3 ovarian) of 7.07 µM. The TGI (SK-OV-3 ovarian) was 15.7 µM, the GI50 (OVCAR-5 ovarian) was 1.47 µM and the TGI (OVCAR-5 ovarian) was 6.18 µM. The GI50 (HCT-15 colon) was 0.9 µM, the TGI (HCT-15 colon) was 2.16 µM and the GI50 (A498 renal) was 1.71 µM. The TGI (A498 renal) was 6.83 µM, the GI50 (LOX IMVI melanoma) was 0.0252 µM and the TGI (LOX IMVI melanoma) was 0.668 µM. For the same molecule, the GI50 (NCI/ADR-RES ovarian) was 1.45 µM, the TGI (NCI/ADR-RES ovarian) was 50 µM and the GI50 (NCI-H23 lung) was 1.79 µM. The TGI (NCI-H23 lung) was 7.67 µM, the GI50 (SK-MEL-2 melanoma) was 0.973 µM and the TGI (SK-MEL-2 melanoma) was 2.19 µM. For the same molecule, the GI50 (SN12C renal) was 1.3 µM, the TGI (SN12C renal) was 5.02 µM and the GI50 (PC-3 prostate) was 1.9 µM. The TGI (PC-3 prostate) was 8.55 µM, the GI50 (CCRF-CEM leukemia) was 0.312 µM and the TGI (CCRF-CEM leukemia) was 2.65 µM. For the same molecule, the GI50 (MDA-MB-231 breast) was 1.79 µM, the TGI (MDA-MB-231 breast) was 9.42 µM and the GI50 (SF-268 CNS) was 2.46 µM. It also gave a TGI (SF-268 CNS) of 11 µM, a GI50 (UACC-62 melanoma) of 1.18 µM and a TGI (UACC-62 melanoma) of 6.05 µM. The GI50 (OVCAR-8 ovarian) was 0.93 µM, the TGI (OVCAR-8 ovarian) was 2.02 µM and the GI50 (NCI-H522 lung) was 0.806 µM. The TGI (NCI-H522 lung) was 1.63 µM, the GI50 (ACHN renal) was 0.861 µM and the TGI (ACHN renal) was 1.74 µM. The GI50 (U251 CNS) was 2.4 µM, the TGI (U251 CNS) was 8.39 µM and the GI50 (SW-620 colon) was 0.848 µM. For the same molecule, the TGI (SW-620 colon) was 1.75 µM, the GI50 (NCI-H460 lung) was 2.11 µM and the TGI (NCI-H460 lung) was 8.52 µM. For the same molecule, the GI50 (IGROV1 ovarian) was 1.09 µM, the TGI (IGROV1 ovarian) was 2.7 µM and the GI50 (HCT-116 colon) was 0.8 µM. It also gave a TGI (HCT-116 colon) of 1.57 µM, a GI50 (KM12 colon) of 2.21 µM and a TGI (KM12 colon) of 8.27 µM. For the same molecule, the GI50 (UO-31 renal) was 0.727 µM, the TGI (UO-31 renal) was 1.43 µM and the GI50 (COLO 205 colon) was 2.19 µM. The TGI (COLO 205 colon) was 7.97 µM.
Molecule CC[C@]12C=CCN3CC[C@@]4(c5cc(NC(=O)COc6cc(O)c7c(=O)cc(-c8ccccc8)oc7c6)c(OC)cc5N(C)[C@H]4[C@@](O)(C(=O)OC)[C@@H]1OC(C)=O)[C@@H]32 has a GI50 (HOP-92 NSCLC) of 1.36 µM, a TGI (HOP-92 NSCLC) of 2.98 µM and a GI50 (DU-145 prostate) of 2.4 µM. The TGI (DU-145 prostate) was 5.57 µM, the GI50 (SK-MEL-28 melanoma) was 1.75 µM and the TGI (SK-MEL-28 melanoma) was 3.2 µM. It also gave a GI50 (RXF 393 renal) of 1.74 µM, a TGI (RXF 393 renal) of 3.2 µM and a GI50 (786-0 renal) of 1.79 µM. For the same molecule, the TGI (786-0 renal) was 3.53 µM, the GI50 (HOP-62 NSCLC) was 1.88 µM and the TGI (HOP-62 NSCLC) was 3.94 µM. The GI50 (OVCAR-4 ovarian) was 1.88 µM, the TGI (OVCAR-4 ovarian) was 3.42 µM and the GI50 (BT-549 breast) was 1.64 µM. It also gave a TGI (BT-549 breast) of 3.18 µM, a GI50 (HS 578T breast) of 1.99 µM and a TGI (HS 578T breast) of 4.79 µM. It also gave a GI50 (SNB-75 CNS) of 1.34 µM, a TGI (SNB-75 CNS) of 3.97 µM and a GI50 (SK-MEL-5 melanoma) of 1.81 µM. The TGI (SK-MEL-5 melanoma) was 3.34 µM, the GI50 (EKVX NSCLC) was 2 µM and the TGI (EKVX NSCLC) was 4.6 µM. For the same molecule, the GI50 (MALME-3M melanoma) was 1.58 µM, the TGI (MALME-3M melanoma) was 2.97 µM and the GI50 (CAKI-1 renal) was 1.81 µM. For the same molecule, the TGI (CAKI-1 renal) was 4.29 µM, the GI50 (MDA-MB-435) was 1.56 µM and the TGI (MDA-MB-435) was 3.02 µM. The GI50 (OVCAR-3 ovarian) was 2.81 µM, the TGI (OVCAR-3 ovarian) was 7.17 µM and the GI50 (TK-10 renal) was 2.15 µM. For the same molecule, the TGI (TK-10 renal) was 4.84 µM, the GI50 (SF-539 CNS) was 1.67 µM and the TGI (SF-539 CNS) was 3.2 µM. It also gave a GI50 (SK-OV-3 ovarian) of 2.15 µM, a TGI (SK-OV-3 ovarian) of 4.79 µM and a GI50 (OVCAR-5 ovarian) of 1.72 µM. The TGI (OVCAR-5 ovarian) was 3.2 µM, the GI50 (A498 renal) was 1.48 µM and the TGI (A498 renal) was 3.1 µM. It also gave a GI50 (NCI-H23 lung) of 1.85 µM, a TGI (NCI-H23 lung) of 3.45 µM and a GI50 (PC-3 prostate) of 1.31 µM. The TGI (PC-3 prostate) was 2.78 µM, the GI50 (SF-268 CNS) was 1.98 µM and the TGI (SF-268 CNS) was 4.51 µM. It also gave a GI50 (UACC-62 melanoma) of 1.85 µM, a TGI (UACC-62 melanoma) of 3.69 µM and a GI50 (ACHN renal) of 1.67 µM. For the same molecule, the TGI (ACHN renal) was 3.2 µM, the GI50 (KM12 colon) was 2.07 µM and the TGI (KM12 colon) was 5.14 µM. For the same molecule, the GI50 (UO-31 renal) was 1.68 µM and the TGI (UO-31 renal) was 3.08 µM.

From PubChem BioAssay (NCI)
